The target of one experiment is T1, CCR1 (Homo sapiens, UniProt P32246).
T1 sequence (P32246 1-355): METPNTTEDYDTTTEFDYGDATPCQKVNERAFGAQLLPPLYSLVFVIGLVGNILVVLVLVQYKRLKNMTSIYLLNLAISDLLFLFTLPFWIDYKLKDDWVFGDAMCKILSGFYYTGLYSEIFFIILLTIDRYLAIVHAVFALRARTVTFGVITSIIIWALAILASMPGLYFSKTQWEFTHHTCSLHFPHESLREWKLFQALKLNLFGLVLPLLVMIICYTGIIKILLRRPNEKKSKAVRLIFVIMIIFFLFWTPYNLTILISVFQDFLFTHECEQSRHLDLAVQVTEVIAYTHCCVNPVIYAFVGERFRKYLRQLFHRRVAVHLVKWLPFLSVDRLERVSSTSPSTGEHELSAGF
The experiment is described as follows: Membrane-based NanoBRET competition kinetic assay with 12 (1000 nM) and CCR1_Nluc membranes. The format is binding. Further details: Promega pNLF1-C (Nluc) #CCR010TN00; host or cells: HEK293T, transient (PEI). In general terms: Bioluminescence resonance energy transfer reports proximity on the nanometre scale.

The next experiment has as its target T2, CXCR1 (Homo sapiens, UniProt P25024).
T2 construct: host or cells: HEK293T, transient
T2 sequence (P25024 1-350): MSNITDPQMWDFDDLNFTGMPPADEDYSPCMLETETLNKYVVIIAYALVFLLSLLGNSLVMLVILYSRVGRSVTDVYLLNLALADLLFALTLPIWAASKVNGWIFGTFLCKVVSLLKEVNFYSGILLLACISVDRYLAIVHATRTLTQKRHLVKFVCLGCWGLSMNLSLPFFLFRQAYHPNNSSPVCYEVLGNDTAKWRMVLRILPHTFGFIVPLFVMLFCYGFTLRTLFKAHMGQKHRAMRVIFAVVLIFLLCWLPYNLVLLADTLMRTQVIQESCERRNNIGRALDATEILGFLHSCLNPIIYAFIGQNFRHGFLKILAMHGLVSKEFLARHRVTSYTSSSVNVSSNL
Nature of the experiment: Membrane-based NanoBRET saturation binding assay, CXCR1_Nluc membranes. How it is done: Emission spectra of Nluc -labeled CCR1 (CCR1_Nluc) protein: The emission spectra of CCR1_Nluc has already been reported by Toy et al.1 For a confirmation of the reported data with new CCR1_Nluc membrane batches, furimazine (Promega, Mannheim, Germany 1:2000) was added to the membrane preparations (2 µg protein/well). […]
NanoBRET binding assays: Membrane-based NanoBRET saturation assay: For the establishment of our NanoBRET binding assay, we referred to recently published protocols. […]
Then, 20 µL of the membrane preparations diluted in assay buffer (3 µg total protein/well) were added and the plates were incubated for 90 min at 37 °C. Subsequently, 5 µL of a furimazine solution (Promega, Mannheim, Germany, final assay dilution: 1:5,000) were added to each well (final assay volume: 35 µL) before measuring luminescence with a CLARIOstar microplate reader using 620/10 nm and 475/30 nm emission filters after 5 min of incubation in the dark. Bioluminescence resonance energy transfer (BRET) was determined as the ratio of acceptor fluorescence and donor luminescence. […] Specific binding signals were calculated as a difference of total and non-specific binding. If required, netBRET values were calculated as the difference between total BRET values and the values obtained in the absence of a fluorescent ligand. […]

Molecules are shown by their SMILES.

A word on the koff: it is the first-order rate constant of dissociation. Read a high koff as fast dissociation. In general, kon refers to the second-order rate constant of association. What is called Ki is the dissociation constant of the complex between target and ligand, obtained from inhibition or displacement. Take `CC(=O)C1=C(O)C(=O)N(c2ccc(Br)cc2F)C1C1CCCCC1` (centres unmarked) [compound 5, reference compound]: at CCR1 (CCR1_Nluc membranes), the koff was 0.0019 s⁻¹, the kon was 723000 M⁻¹ s⁻¹ and the “tr (kinetic competition)” value is recorded as 9.1 ± 0.5 min. The Ki at CCR1 (kinetic competition, read-out: Ki(kin.)) was 0.00263 µM.
A word on the Kd: it is the free concentration of one partner at which half of the binding sites on the other are occupied at equilibrium, for simple one-to-one binding. Higher therefore signals a looser complex. `CN(C)c1ccc2c(-c3cc(C(=O)NCCOCCOCc4cn(CCCC(=O)C5=C(O)C(=O)N(c6ccc(Br)cc6F)C5C5CCCCC5)nn4)ccc3C(=O)[O-])c3ccc(=[N+](C)C)cc-3oc2c1` (centres unmarked) [compound 12] registered a Kd at CXCR1 of 12.3 ± 0.3 µM.

Values taken from publication PMC11249626, “Fluorophore-Labeled Pyrrolones Targeting the Intracellular Allosteric Binding Site of the Chemokine Receptor CCR1” (ACS Pharmacology & Translational Science, 2024).
